# Values quoted from earlier work in patent publication US7183291B2 (Council of Scientific and Industrial Research, priority 1999, dated 2007).
# Experiments:
# [1] = tested on: P. cynomolgi B. infection; details: 3.16 mg/kg×3 doses; monkeys; cited from earlier work
# [2] = tested on: P. cynomolgi B. infection; details: 1 mg/kg×7 days; cited from earlier work
# erythrocytes = details: cited from earlier work
# rodent malaria [3] = details: in vivo; cited from earlier work
# rodent malaria [4] = details: in vivo; cited from earlier work; remark: listed apart in the source
# rodent malaria [5] = details: given directly to the insect; cited from earlier work
# rodent malaria [6] = details: in vivo; cited from earlier work; remark: listed apart in the source
Compound,gametocytocidal activity (rodent malaria [3]),blood schizontocidal activity (rodent malaria [4]),further results
"COc1cc(NC(C)CCCNC2=C(C(C)=O)CCO2)c2ncccc2c1 (stereo not drawn) [N^1-(3-acetyl-4,5-dihydro-2-furanyl)-N^4-(6-methoxy-8-quinolinyl)-1,4-pentanediamine]",–,–,causal prophylactic activity [1]: causal prophylactic activity; anti-relapse (radical curative) activity [2]: exerts anti-relapse (radical curative) activity
"COc1cc(NC(C)CCCN)c2ncccc2c1O (stereo not drawn) [formula (3), 5-hydroxy-6-methoxy-8-(4-amino-1-methylbutylamino) quinoline]",inactive,highly active,oxidation of oxyhemoglobin (HbO2) to methemoglobin (Met Hb) and of reduced glutathione (GSH) (erythrocytes): cause oxidation
"COC1(O)C=C(NC(C)CCCN)c2ncccc2C1O (stereo not drawn) [formula (4), 5,6-dihydroxy-6-methoxy-8-(4-amino-1-methylbutylamino) quinoline]",only a slight gametocytocidal activity,highly active,–
"COc1cc(N)c2ncccc2c1 [formula (10), 6-methoxy-8-aminoquinoline]",–,no significant activity,direct sporontocidal activity (rodent malaria [5]): directly sporontocidal; tissue schizontoidal effect relative to primaquine (rodent malaria [6]): two to three times more active than primaquine
"Nc1cc(O)c(O)c2cccnc12 [formula (11), 5,6-dihydroxy-8-aminoquinoline]",–,no significant activity,oxidation of oxyhemoglobin (HbO2) to methemoglobin (Met Hb) and of reduced glutathione (GSH) (erythrocytes): cause oxidation; direct sporontocidal activity (rodent malaria [5]): directly sporontocidal; tissue schizontoidal effect relative to primaquine (rodent malaria [6]): two to three times more active than primaquine
"COc1cc(NC(C)CCC(=O)O)c2ncccc2c1 (stereo not drawn) [formula (12), 8-(3-carboxy-1-methylpropylamino)-6-methoxy quinoline]",inactive,–,methemoglobin formation in vitro (erythrocytes; in vitro): does not cause methemoglobin formation
Desmethyl primaquine [formula (5)],inactive,little,–
